Where a SMILES comes first, the peptide text is derived from it. Bridges are numbered along the chain shown (N, C = ends). Where no end group is shown, it is not given here.
Tests used:
rat PAC1 receptor = target: T1, rat PAC1 receptor (Rattus norvegicus, UniProt P32215); assay: LANCE Ultra cAMP accumulation antagonist assay in RG-2 cells; assay type: cell-based;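 note: RG-2 rat glioma cells endogenously expressing PAC1, test peptide preincubated 30 min, then PAC1 agonist added at its EC80 for 15 min, cAMP accumulation read by LANCE Ultra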
T1 construct: SHSY-5Y (human neuroblastoma cell line) and RG-2 (rat glioma cell line) cells endogenously express human and rat PAC1 receptors, respectively; endogenous in cells; host or cells: RG-2 rat glioma cells
T1 sequence (P32215 20-523): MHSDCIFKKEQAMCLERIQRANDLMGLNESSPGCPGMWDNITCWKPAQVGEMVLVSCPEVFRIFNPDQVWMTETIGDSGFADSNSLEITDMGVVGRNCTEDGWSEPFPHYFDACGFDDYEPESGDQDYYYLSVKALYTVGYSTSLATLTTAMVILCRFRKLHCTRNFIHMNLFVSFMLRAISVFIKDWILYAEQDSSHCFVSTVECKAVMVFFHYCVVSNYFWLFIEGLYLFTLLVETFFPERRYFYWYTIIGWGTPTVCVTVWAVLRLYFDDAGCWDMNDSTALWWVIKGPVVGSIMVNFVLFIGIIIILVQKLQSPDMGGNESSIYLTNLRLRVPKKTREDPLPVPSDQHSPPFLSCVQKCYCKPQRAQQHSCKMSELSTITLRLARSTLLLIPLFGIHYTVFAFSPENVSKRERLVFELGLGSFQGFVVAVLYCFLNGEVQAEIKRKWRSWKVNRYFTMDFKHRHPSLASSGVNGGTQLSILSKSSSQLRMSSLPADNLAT

human PAC1 receptor = target: T2, human PAC1 receptor (Homo sapiens, UniProt P41586); assay: LANCE Ultra cAMP accumulation antagonist assay in SHSY-5Y cells; assay type: cell-based;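 note: inhibition of cAMP accumulation evoked by PAC1 agonist at its EC80 in SHSY-5Y cells endogenously expressing receptor, 30 min preincubation then 15 min agonist, TR-FRET readout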
T2 construct: SHSY-5Y (human neuroblastoma cell line) and RG-2 (rat glioma cell line) cells endogenously express human and rat PAC1 receptors, respectively; endogenous in cells; host or cells: SHSY-5Y human neuroblastoma cells
T2 sequence (P41586 21-468): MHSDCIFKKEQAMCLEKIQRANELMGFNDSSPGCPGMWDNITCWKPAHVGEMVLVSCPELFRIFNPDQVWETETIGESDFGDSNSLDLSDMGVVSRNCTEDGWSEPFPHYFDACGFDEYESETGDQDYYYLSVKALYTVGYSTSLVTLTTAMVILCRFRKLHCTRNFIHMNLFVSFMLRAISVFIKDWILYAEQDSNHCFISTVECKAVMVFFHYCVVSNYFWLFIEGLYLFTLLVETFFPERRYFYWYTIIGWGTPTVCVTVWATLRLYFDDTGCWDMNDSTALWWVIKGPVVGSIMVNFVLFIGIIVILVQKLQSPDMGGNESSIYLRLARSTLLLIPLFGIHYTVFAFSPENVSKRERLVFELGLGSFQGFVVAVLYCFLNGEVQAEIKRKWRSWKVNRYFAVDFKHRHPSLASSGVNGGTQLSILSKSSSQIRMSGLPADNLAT
Protocol: In order to determine the potency of peptide antagonists at the PAC1 receptor, functional cAMP accumulation assays using LANCE Ultra cAMP assay kit to measure the agonist and antagonist activity of PAC1 peptides were used. SHSY-5Y (human neuroblastoma cell line) and RG-2 (rat glioma cell line) cells endogenously express human and rat PAC1 receptors, respectively. Agonist activity of PAC1 peptides was tested by incubating with SHSY-5Y at 2,000 cells per well or RG-2 at 5,000 cells per well for 15 minutes at room temperature. PAC1 receptor agonist PACAP38 or maxadilan was included as a positive control. The reaction was stopped by adding detection mixture, europium (Eu) chelate-labeled cAMP tracer and cAMP-specific monoclonal antibodies labeled with the ULight™ dye, to all wells followed by a 60-minute incubation at room temperature. The assay plates were then read on an EnVision instrument at an emission wavelength of 665 and 615 nm and data were analyzed using Genedata Screener or GraphPad Prism software. A similar procedure was used in the antagonist assays by using a fixed concentration of PAC1 agonist. The concentrations of agonists were chosen based on their ECK) values at PAC1 receptors in SHSY-5Y or RG-2 cells. SHSY-5Y or RG-2 cells were added into 96-well half-area white plates. Serially diluted PAC1 peptides at ten concentrations were added and incubated for 30 minutes at room temperature. PAC1 agonist at EC80 concentration was then added and further incubated for 15 minutes at room temperature. The reaction was stopped by adding detection mixture to all wells followed by a 60-minute incubation at room temperature. The assay plates were read and analyzed the same way as that of agonist assay. Cells, agonists, and PAC1 peptides were prepared in freshly made assay buffer (F-12, 0.5 mM IBMX, 0.1 or 0.4% BSA (pH 7.4)). Detection mixture was made by mixing a 1/50 dilution of the Eu-cAMP tracer stock solution in cAMP Detection Buffer and a 1/150 dilution of the ULight-anti-cAMP stock solution in cAMP Detection Buffer. Europium (Eu) chelate-labeled cAMP tracer, cAMP-specific monoclonal antibodies labeled with the ULight™ dye, BSA, and detection buffer were provided in LANCE Ultra cAMP Kit from PerkinElmer

Molecule	IC50 (rat PAC1 receptor) [nM]	IC50 (human PAC1 receptor) [nM]
CC[C@H](C)[C@H](NC(=O)[C@H](C)NC(=O)[C@H](CCCCN)NC(=O)[C@H](CCCNC(=N)N)NC(=O)[C@H](Cc1ccccc1)NC(=O)[C@H](CCC(N)=O)NC(=O)[C@@H]1CSSC[C@H](N)C(=O)N[C@@H](CC(=O)O)C(=O)N[C@@H](C)C(=O)N[C@@H]([C@@H](C)O)C(=O)N1)C(=O)N[C@@H](CC(=O)O)C(=O)N[C@@H](CC(=O)O)C(=O)N[C@H]1CSSC[C@@H](C(=O)N[C@@H](CCSC)C(=O)N[C@@H](CCCCN)C(=O)N[C@@H](CCC(N)=O)C(=O)N[C@@H](CCCCN)C(=O)N[C@@H](CCCCN)C(=O)N[C@@H](CCCCN)C(=O)N[C@@H](CCC(=O)O)C(=O)N[C@@H](Cc2ccccc2)C(=O)N[C@@H](CCCCN)C(N)=O)NC(=O)[C@H](CCC(=O)O)NC(=O)[C@H](CCCCN)NC(=O)[C@H](Cc2ccccc2)NC(=O)[C@H](C(C)C)NC(=O)[C@H](CO)NC(=O)[C@H](CO)NC(=O)[C@H](Cc2c[nH]cn2)NC(=O)[C@H](Cc2c[nH]cn2)NC(=O)[C@H](C)NC(=O)[C@H](CCC(N)=O)NC(=O)[C@H](CCCCN)NC(=O)[C@H](CC(=O)O)NC1=O [compound 223]	1 to 100	< 0.01
CDATCQFRKAIDDCQKQAHHSNVPGSVFKACLLQKKKEFKAG-NH2 (disulfide 1-5, 14-31) [compound 100]	1 to 100	1 to 100
CC[C@H](C)[C@H](NC(=O)[C@H](C)NC(=O)[C@H](CCCCN)NC(=O)[C@H](CCCNC(=N)N)NC(=O)[C@H](Cc1ccccc1)NC(=O)[C@H](CCC(N)=O)NC(=O)[C@@H]1CSSC[C@H](N)C(=O)N[C@@H](CC(=O)O)C(=O)N[C@@H](C)C(=O)N[C@@H]([C@@H](C)O)C(=O)N1)C(=O)N[C@@H](CC(=O)O)C(=O)N[C@@H](CC(=O)O)C(=O)N[C@H]1CSSC[C@@H](C(=O)N[C@@H](CCSC)C(=O)N[C@@H](CCCCN)C(=O)N[C@@H](CCC(N)=O)C(=O)N[C@@H](CCCCN)C(=O)N[C@@H](CCCCN)C(=O)N[C@@H](CCCCN)C(=O)N[C@@H](CCC(=O)O)C(=O)N[C@@H](Cc2ccccc2)C(=O)N[C@@H](CCCCN)C(N)=O)NC(=O)[C@H](CCC(=O)O)NC(=O)[C@H](CCCCN)NC(=O)[C@H](Cc2ccccc2)NC(=O)[C@H](C(C)C)NC(=O)[C@H](CO)NC(=O)[C@H](CC(N)=O)NC(=O)CNC(=O)[C@@H]2CCCN2C(=O)[C@H](C(C)C)NC(=O)[C@H](CC(N)=O)NC(=O)[C@H](CO)NC(=O)[C@H](Cc2c[nH]cn2)NC(=O)[C@H](Cc2c[nH]cn2)NC(=O)[C@H](C)NC(=O)[C@H](CCC(N)=O)NC(=O)[C@H](CCCCN)NC(=O)[C@H](CC(=O)O)NC1=O [compound 295]	0.01 to 1	1 to 100
CDATCQFRKAIDDCYYRSKHSNVPGSVFKACMKQKKKEFKAG-NH2 (disulfide 1-5, 14-31) [compound 43]	< 0.01	0.01 to 1
CC[C@H](C)[C@H](NC(=O)[C@H](C)NC(=O)[C@H](CCCCN)NC(=O)[C@H](CCCNC(=N)N)NC(=O)[C@H](Cc1ccccc1)NC(=O)[C@H](CCC(N)=O)NC(=O)[C@@H]1CSSC[C@H](N)C(=O)N[C@@H](CC(=O)O)C(=O)N[C@@H](C)C(=O)N[C@@H]([C@@H](C)O)C(=O)N1)C(=O)N[C@@H](CC(=O)O)C(=O)N[C@@H](CC(=O)O)C(=O)N[C@H]1CSSC[C@@H](C(=O)N[C@@H](CCSC)C(=O)N[C@@H](CCCCN)C(=O)N[C@@H](CCC(N)=O)C(=O)N[C@@H](CCCCN)C(=O)N[C@@H](CCCCN)C(=O)N[C@@H](CCCCN)C(=O)N[C@@H](CCC(=O)O)C(=O)N[C@@H](Cc2ccccc2)C(=O)N[C@@H](CCCCN)C(=O)N[C@@H](C)C(=O)NCC(N)=O)NC(=O)[C@H](C)NC(=O)[C@H](CCCCN)NC(=O)[C@H](Cc2ccccc2)NC(=O)[C@H](CO)NC(=O)[C@H](CO)NC(=O)[C@H](Cc2c[nH]cn2)NC(=O)[C@H](Cc2c[nH]c3ccccc23)NC(=O)[C@H](CO)NC(=O)[C@H](CCCNC(=N)N)NC(=O)[C@H](Cc2ccc(O)cc2)NC(=O)[C@H](Cc2ccc(O)cc2)NC1=O [compound 63] (H-CDATCQFRKAIDDCYYRSWHSSFKACMKQKKKEFKAG-NH2; disulfide 1-5, 14-26)	0.01 to 1	0.01 to 1
CDATCQFRKAIDDCQKQAHHSNVPGSVFKACMKQRKKRWLAG-NH2 (disulfide 1-5, 14-31) [compound 126]	0.01 to 1	0.01 to 1
CSCC[C@H](NC(=O)[C@@H]1CSSC[C@H](NC(=O)[C@H](C)NC(=O)[C@@H](NC(=O)[C@H](CC(C)C)NC(=O)CNC(=O)[C@H](CCCCN)NC(=O)[C@H](CCCNC(=N)N)NC(=O)[C@H](Cc2ccc(O)cc2)NC(=O)[C@H](CCC(N)=O)NC(=O)[C@@H]2CSSC[C@H](N)C(=O)N[C@@H](CC(=O)O)C(=O)N[C@@H](C)C(=O)N[C@@H]([C@@H](C)O)C(=O)N2)C(C)C)C(=O)N[C@@H](C)C(=O)N[C@@H](CCCNC(=N)N)C(=O)N[C@@H](CCC(N)=O)C(=O)N[C@@H](C)C(=O)N[C@@H](Cc2ccc(O)cc2)C(=O)N[C@@H](Cc2c[nH]cn2)C(=O)N[C@@H](CO)C(=O)N[C@@H](CO)C(=O)N[C@@H](C(C)C)C(=O)N[C@@H](Cc2ccccc2)C(=O)N[C@@H](CCCCN)C(=O)N[C@@H](C)C(=O)N1)C(=O)N[C@@H](CCCCN)C(=O)N[C@@H](CCC(N)=O)C(=O)N[C@@H](CCCCN)C(=O)N[C@@H](CCCCN)C(=O)N[C@@H](CCCCN)C(=O)N[C@@H](CCC(=O)O)C(=O)N[C@@H](Cc1c[nH]c2ccccc12)C(N)=O [compound 5] (H-CDATCQYRKGLVACARQAYHSSVFKACMKQKKKEW-NH2; disulfide 1-5, 14-27)	1 to 100	1 to 100
CDATCQFRKAIDDCARQAHHSQVPGSVFKACMKQKKKEWKAGH (disulfide 1-5, 14-31) [compound 22]	0.01 to 1	0.01 to 1
CC[C@H](C)[C@H](NC(=O)[C@H](C)NC(=O)[C@H](CCCCN)NC(=O)[C@H](CCCNC(=N)N)NC(=O)[C@H](Cc1ccccc1)NC(=O)[C@H](CCC(N)=O)NC(=O)[C@@H]1CSSC[C@H](N)C(=O)N[C@@H](CC(=O)O)C(=O)N[C@@H](C)C(=O)N[C@@H]([C@@H](C)O)C(=O)N1)C(=O)N[C@@H](CC(=O)O)C(=O)N[C@@H](CC(=O)O)C(=O)N[C@H]1CSSC[C@@H](C(=O)N[C@@H](CCSC)C(=O)N[C@@H](CCCCN)C(=O)N[C@@H](CCC(N)=O)C(=O)N[C@@H](CCCCN)C(=O)N[C@@H](CCCCN)C(=O)N[C@@H](CCCCN)C(=O)N[C@@H](CCC(=O)O)C(=O)N[C@@H](Cc2c[nH]c3ccccc23)C(=O)N[C@@H](CCCCN)C(=O)N[C@@H](C)C(=O)NCC(=O)N[C@@H](Cc2c[nH]cn2)C(=O)O)NC(=O)[C@H](C)NC(=O)[C@H](CCCCN)NC(=O)[C@H](Cc2ccccc2)NC(=O)[C@H](C(C)C)NC(=O)[C@H](CO)NC(=O)[C@H](CO)NC(=O)[C@H](Cc2c[nH]cn2)NC(=O)[C@H](Cc2c[nH]cn2)NC(=O)[C@H](C)NC(=O)[C@H](CCC(N)=O)NC(=O)[C@H](CCCNC(=N)N)NC(=O)[C@H](C)NC1=O [compound 28] (H-CDATCQFRKAIDDCARQAHHSSVFKACMKQKKKEWKAGH-OH; disulfide 1-5, 14-27)	0.01 to 1	0.01 to 1
CDATCQFRKAIDDCYYRSWHANVPGSVFKACMKQKKKEWKAGN (disulfide 1-5, 14-31) [compound 62]	0.01 to 1	1 to 100
CC[C@H](C)[C@H](NC(=O)[C@H](C)NC(=O)[C@H](CCCCN)NC(=O)[C@H](CCCNC(=N)N)NC(=O)[C@H](Cc1ccccc1)NC(=O)[C@H](CCC(N)=O)NC(=O)[C@@H]1CSSC[C@H](N)C(=O)N[C@@H](CC(=O)O)C(=O)N[C@@H](C)C(=O)N[C@@H]([C@@H](C)O)C(=O)N1)C(=O)N[C@@H](CC(=O)O)C(=O)N[C@@H](CC(=O)O)C(=O)N[C@H]1CSSC[C@@H](C(=O)N[C@@H](CCSC)C(=O)N[C@@H](CCCCN)C(=O)N[C@@H](CCC(N)=O)C(=O)N[C@@H](CCCCN)C(=O)N[C@@H](CCCCN)C(=O)N[C@@H](CCCCN)C(=O)N[C@@H](CCC(=O)O)C(=O)N[C@@H](Cc2c[nH]c3ccccc23)C(=O)N[C@@H](CCCCN)C(=O)N[C@@H](C)C(=O)NCC(=O)N[C@@H](Cc2c[nH]cn2)C(=O)O)NC(=O)[C@H](C)NC(=O)[C@H](CCCCN)NC(=O)[C@H](Cc2ccccc2)NC(=O)[C@H](C(C)C)NC(=O)[C@H](CO)NC(=O)[C@H](CO)NC(=O)[C@H](Cc2c[nH]cn2)NC(=O)[C@H](Cc2c[nH]cn2)NC(=O)[C@H](C)NC(=O)[C@H](CCC(N)=O)NC(=O)[C@H](CCCNC(=N)N)NC(=O)[C@H](C(C)C)NC1=O [compound 75] (H-CDATCQFRKAIDDCVRQAHHSSVFKACMKQKKKEWKAGH-OH; disulfide 1-5, 14-27)	< 0.01	0.01 to 1
CDATCQFRKAIDDCQKQAHHSNVPGSVFKACMKFRRTLWKAG-NH2 (disulfide 1-5, 14-31) [compound 89]	0.01 to 1	1 to 100
